Tests used:
Assay in all cases: competition with DK-01 photoaffinity labelling, in-gel fluorescence
Format in all cases: biochemical
Settings in all cases: 200 uM inhibitor preincubated, 10 uM DK-01; leaf extract; band assigned by knockout
TOP1 = target: T1, TOP1 (Arabidopsis thaliana, UniProt Q94AM1)
T1 construct: gene OOP; assigned by knockout lines
T1 sequence (Q94AM1 83-791): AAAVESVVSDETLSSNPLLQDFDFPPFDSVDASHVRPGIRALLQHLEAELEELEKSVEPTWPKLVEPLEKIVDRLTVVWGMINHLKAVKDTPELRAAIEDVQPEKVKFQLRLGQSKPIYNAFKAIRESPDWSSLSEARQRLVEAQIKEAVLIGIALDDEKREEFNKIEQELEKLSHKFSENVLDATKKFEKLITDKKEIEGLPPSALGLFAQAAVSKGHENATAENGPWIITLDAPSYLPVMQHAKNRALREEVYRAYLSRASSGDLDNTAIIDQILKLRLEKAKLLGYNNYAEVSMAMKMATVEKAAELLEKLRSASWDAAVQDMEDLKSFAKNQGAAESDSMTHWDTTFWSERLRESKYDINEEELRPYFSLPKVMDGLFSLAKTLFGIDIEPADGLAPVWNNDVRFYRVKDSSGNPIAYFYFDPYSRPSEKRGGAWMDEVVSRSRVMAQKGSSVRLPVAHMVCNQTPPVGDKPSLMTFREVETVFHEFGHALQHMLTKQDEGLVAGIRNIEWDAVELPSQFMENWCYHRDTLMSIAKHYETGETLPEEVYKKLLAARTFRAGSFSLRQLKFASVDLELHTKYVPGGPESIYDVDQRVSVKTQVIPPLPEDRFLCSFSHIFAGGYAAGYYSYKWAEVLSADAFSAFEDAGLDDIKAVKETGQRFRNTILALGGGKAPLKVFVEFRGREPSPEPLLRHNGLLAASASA

PREP1 = target: T2, PREP1 (Arabidopsis thaliana, UniProt Q9LJL3)
T2 construct: assigned by knockout lines; locus printed At3g18170, probably a misprint for At3g19170
T2 sequence (Q9LJL3 86-1080): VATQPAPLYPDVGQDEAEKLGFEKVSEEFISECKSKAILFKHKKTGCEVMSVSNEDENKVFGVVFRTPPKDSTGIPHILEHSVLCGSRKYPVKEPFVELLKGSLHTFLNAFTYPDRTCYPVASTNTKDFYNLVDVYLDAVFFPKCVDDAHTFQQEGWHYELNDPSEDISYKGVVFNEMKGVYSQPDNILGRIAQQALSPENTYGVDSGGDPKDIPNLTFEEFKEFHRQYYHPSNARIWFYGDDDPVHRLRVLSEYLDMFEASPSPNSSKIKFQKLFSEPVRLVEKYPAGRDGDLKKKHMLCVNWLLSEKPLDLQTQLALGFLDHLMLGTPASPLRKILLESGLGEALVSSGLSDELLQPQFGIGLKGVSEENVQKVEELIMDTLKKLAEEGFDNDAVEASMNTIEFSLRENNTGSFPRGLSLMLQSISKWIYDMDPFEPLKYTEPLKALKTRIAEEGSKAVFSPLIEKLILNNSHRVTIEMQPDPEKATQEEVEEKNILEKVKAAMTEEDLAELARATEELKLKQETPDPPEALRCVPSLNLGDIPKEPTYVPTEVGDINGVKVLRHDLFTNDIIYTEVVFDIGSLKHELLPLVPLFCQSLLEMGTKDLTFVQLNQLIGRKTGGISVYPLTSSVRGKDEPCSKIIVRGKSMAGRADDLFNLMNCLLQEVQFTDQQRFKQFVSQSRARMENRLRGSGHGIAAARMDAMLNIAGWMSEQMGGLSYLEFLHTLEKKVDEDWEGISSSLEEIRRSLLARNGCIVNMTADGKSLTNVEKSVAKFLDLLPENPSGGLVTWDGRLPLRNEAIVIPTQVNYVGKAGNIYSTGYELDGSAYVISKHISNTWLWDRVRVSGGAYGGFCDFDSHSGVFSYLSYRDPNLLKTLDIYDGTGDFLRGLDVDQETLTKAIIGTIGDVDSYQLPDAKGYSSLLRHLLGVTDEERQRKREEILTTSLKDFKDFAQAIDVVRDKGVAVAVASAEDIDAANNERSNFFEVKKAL

APM1 = target: T3, APM1 (Arabidopsis thaliana, UniProt Q8VZH2)
T3 construct: assigned by mutant lines
T3 sequence (Q8VZH2 1-879): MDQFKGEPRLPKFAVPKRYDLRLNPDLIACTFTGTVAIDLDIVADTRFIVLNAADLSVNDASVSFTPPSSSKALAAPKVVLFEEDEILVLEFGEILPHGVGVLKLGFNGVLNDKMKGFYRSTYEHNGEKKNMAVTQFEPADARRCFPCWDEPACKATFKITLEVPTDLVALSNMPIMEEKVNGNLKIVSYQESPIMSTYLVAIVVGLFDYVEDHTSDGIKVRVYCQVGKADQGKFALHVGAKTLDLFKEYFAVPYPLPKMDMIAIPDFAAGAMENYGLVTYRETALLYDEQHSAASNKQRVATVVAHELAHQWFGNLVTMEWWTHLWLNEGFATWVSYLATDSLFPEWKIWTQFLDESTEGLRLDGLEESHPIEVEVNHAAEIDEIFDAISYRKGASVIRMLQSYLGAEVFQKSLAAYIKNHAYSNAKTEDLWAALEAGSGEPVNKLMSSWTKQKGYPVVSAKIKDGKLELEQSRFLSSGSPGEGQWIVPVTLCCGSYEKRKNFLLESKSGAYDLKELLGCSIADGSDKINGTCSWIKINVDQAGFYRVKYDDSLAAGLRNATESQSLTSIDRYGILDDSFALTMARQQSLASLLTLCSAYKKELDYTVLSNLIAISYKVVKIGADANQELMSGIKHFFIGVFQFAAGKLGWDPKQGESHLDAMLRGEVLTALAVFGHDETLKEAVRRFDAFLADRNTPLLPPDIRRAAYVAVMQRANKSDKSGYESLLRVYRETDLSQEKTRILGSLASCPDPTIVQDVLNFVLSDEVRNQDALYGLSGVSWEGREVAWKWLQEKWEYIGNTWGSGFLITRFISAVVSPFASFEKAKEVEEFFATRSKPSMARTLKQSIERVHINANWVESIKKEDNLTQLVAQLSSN

SMILES	competition with DK-01 photoaffinity labelling, in-gel fluorescence (TOP1)	competition with DK-01 photoaffinity labelling, in-gel fluorescence (PREP1)	competition with DK-01 photoaffinity labelling, in-gel fluorescence (APM1)
CCCCC[C@H](CC(=O)NO)C(=O)N[C@H](C(=O)N1CCC[C@H]1CO)C(C)C [actinonin]	TOP1 labelling is actinonin‐sensitive and requires a neutral pH	PREP1 is actinonin/ilomastat‐sensitive	APM1 is marimastat/actinonin‐sensitive and active at pH5 and above
CNC(=O)[C@H](Cc1c[nH]c2ccccc12)NC(=O)[C@@H](CC(=O)NO)CC(C)C [ilomastat]		PREP1 is actinonin/ilomastat‐sensitive	
CNC(=O)[C@@H](NC(=O)[C@H](CC(C)C)[C@H](O)C(=O)NO)C(C)(C)C [marimastat]			APM1 is marimastat/actinonin‐sensitive and active at pH5 and above

Reference: publication PMC9322406, “Broad‐range metalloprotease profiling in plants uncovers immunity provided by defence‐related metalloenzyme” (The New Phytologist, 2022)
